Literature values, collected in patent US8697115B2, “Method of improving antioxidant status of an infant” (Abbott Laboratories, priority 2002, dated 2014).

Columns and labels:
[1] = Food Chemicals Codex effective Jul. 1, 1996
[2] = α-tocopherol equivalents; from Vitamin E in Health and Disease, 1993
[3] = adults
[4] = capsule with both forms for 5 days prior to giving birth

Row | SMILES | Activity (IU/mg) [1] [IU/mg] | Activity as α-TE (mg/mg compound) [2] [mg/mg compound] | further results
1 | Cc1c(C)c2c(c(C)c1O)CCC(C)(CCCC(C)CCCC(C)CCCC(C)C)O2 (racemic) [d,l-α-tocopherol, 2DL,4′DL,8′DL-α-tocopherol] | 1.1 | – | –
2 | Cc1c(C)c2c(c(C)c1O)CC[C@@](C)(CCC[C@H](C)CCC[C@H](C)CCCC(C)C)O2 [RRR-α-tocopherol, 2R,4′R,8′R-α-tocopherol] | 1.49 | 1.0 | enrichment in VLDL secreted by the liver over all-rac-α-tocopherol [3]: 4 fold; amount in placental cord blood relative to synthetic vitamin E [4]: ~3.5 times; concentration in the mother's own blood at delivery relative to synthetic vitamin E ([4]; in words): nearly twice
3 | CC(C)=CCC/C(C)=C/CC/C(C)=C/CC[C@]1(C)CCc2c(C)c(O)c(C)c(C)c2O1 [RRR-α-tocotrienol] | – | 0.3 | –
4 | Cc1cc(O)c(C)c2c1O[C@](C)(CCC[C@H](C)CCC[C@H](C)CCCC(C)C)CC2 [RRR-β-tocopherol] | – | 0.5 | –
5 | CC(C)=CCC/C(C)=C/CC/C(C)=C/CC[C@]1(C)CCc2c(C)c(O)cc(C)c2O1 [RRR-β-tocotrienol] | – | 0.05 | –
6 | Cc1c(O)cc2c(c1C)O[C@](C)(CCC[C@H](C)CCC[C@H](C)CCCC(C)C)CC2 [RRR-γ-tocopherol] | – | 0.1 | –
7 | Cc1cc(O)cc2c1O[C@](C)(CCC[C@H](C)CCC[C@H](C)CCCC(C)C)CC2 [RRR-δ-tocopherol] | – | 0.03 | –
8 | CC(=O)Oc1c(C)c(C)c2c(c1C)CCC(C)(CCCC(C)CCCC(C)CCCC(C)C)O2 (stereo not drawn) [d,l-α-tocopherol acetate] | 1.0 | 0.74 | –
9 | Cc1c(C)c2c(c(C)c1OC(=O)CCC(=O)O)CCC(C)(CCCC(C)CCCC(C)CCCC(C)C)O2 (stereo not drawn) [d,l-α-tocopherol acid succinate] | 0.89 | – | –
10 | CC(=O)Oc1c(C)c(C)c2c(c1C)CC[C@@](C)(CCC[C@H](C)CCC[C@H](C)CCCC(C)C)O2 [d-α-tocopherol acetate] | 1.36 | – | preferential utilization compared to all-rac-α-tocopheryl acetate ([3]; in words): about twice
11 | Cc1c(C)c2c(c(C)c1OC(=O)CCC(=O)O)CC[C@@](C)(CCC[C@H](C)CCC[C@H](C)CCCC(C)C)O2 [d-α-tocopherol acid succinate] | 1.21 | – | –
